From patent publication US20130072506A1, “6,8-DISUBSTITUTED PURINE COMPOSITIONS” (priority 2011, published 2013)

What was measured:
[1] = tested on: mitochondria of ASF-2 cells; test: JC-1 staining of mitochondria; assay type: cell-based, human; details: 3 days pre-treatment of dermal fibroblasts
Procedure: All cell culture experiments were performed on early and mid passage cultures (about 20 to 40% lifespan completed) of normal human skin fibroblast line, designated ASF-2. In order to check the effects of test compounds on senescent cells, late passage cells with more than 90% lifespan completed were used. ASF-2 cell line was established from a mammary skin biopsy obtained from a young, non-smoking and healthy […] at the time of breast reduction operation. Normal culture conditions of medium (DMEM) containing antibiotics, 10% foetal calf serum, and incubation at 37° C. with 95% humidity were used. The effects of the test compounds were determined using the following procedures.
Briefly, stock solution of JC-1 (Sigma, M2128) was made at 1 mg/ml in dimethyl sulfoxide. Fresh staining solution […] was prepared by diluting the stock solution in warm (37° C.) culture medium supplemented with 10% calf serum (final conc. 1 μg/ml). Around 3000 cells/ml were seeded in 4 chambered flasks. After three days of incubation, medium is aspirated and one ml of JC-1 staining medium is added, after incubation for 10 mins a cover slip is quickly added and viewed under fluorescent microscope at excitation wavelengths of 488 and 647 nm. […] On depolarization, the orange red punctate staining is replaced by diffuse green monomer fluorescence.

SKH-1 hairless mice [2] = test: Hairless mouse assay: epidermal bromodeoxyuridine (BrdU) staining; assay type: in vivo; details: after 3 weeks of topical treatment
Excerpt: This study determined the effect of topical compound formulations on epidermal cell proliferation using bromodeoxyuridine as an immunohistochemical marker of cell proliferation. Histological examination of the treated and control skin were used to determine cutaneous effects of the topical compounds. Topical tretinoin 0.05% (Renova™) was used as a therapeutic control.
(§1) Experimental Design. 48 female SKH-1 hairless mice (5 weeks old, 20-25 grams, Charles River Laboratories, Wilmington, Mass.) are individually housed in filter-top cages, and acclimated for 5-7 days after delivery. The mice are divided into 8 treatment groups (n=6), including two different control groups (untreated control, vehicle control) and a therapeutic control (tretinoin 0.05% Renova™ cream). Cage cards are marked to indicate treatment groups 1-8. Water and mouse chow are provided ad libitum.
(§2) Topical Treatments. Beginning on Treatment Day 1, test products are applied topically each morning (Monday through Friday) after erythema evaluations for 3 weeks. Using a positive displacement pipette, 20 mg of each agent is applied to a 2 cm×2 cm area of the center midline of the back. The material was spread across the treatment area with the pipette tip.
Bromodeoxyuridine Injection. All animal groups are injected with bromodeoxyuridine (100 mg/kg) I.P. 4 hours after the final application. Animals are sacrificed by CO2 inhalation 3 hours later followed by cervical dislocation. The test sites are excised, and 6 mm punch biopsies are obtained from each treatment site, and from untreated controls. Biopsies are placed into labeled vials containing 4% neutral buffered formalin for paraffin embedding and anti-BrdU staining.
Bromodeoxyuridine Immunohistochemical Staining. Paraffin sections are cut to a […] thickness and stained using the BrdU Immuno-histochemistry kit (X1545K from Exalpha Biologicals, Inc.) and a standard staining protocol. The slides are weakly counterstained in Mayer's hematoxylin and scored under a light microscope for the number of BrdU-positive cells per mm of epidermis for each section. The data are expressed as mean BrdU-positive cells/mm for each treatment group. Differences in BrdU labeling in the treatment groups are statistically analyzed using the Students t-test. Representative photographs are taken of the histological sections of the BrdU-positive staining cells.

SKH-1 hairless mice [3] = test: Hairless mouse assay: skin histology and skin compartment measurements; assay type: in vivo; details: after 3 weeks of treatment
Excerpt: as §1, §2
Skin Histology. Skin biopsies are taken of each treatment site and untreated control skin. Biopsies are fixed in 4% neutral buffered formalin, embedded in paraffin, and stained with hematoxylin and eosin. The stained skin sections are examined to determine the effects of the treatment on epidermal, dermal, and stratum corneum histology. Biopsies are also microscopically examined for inflammatory cells.
Skin Compartment Measurements. The H&E stained biopsy slides were imaged using a trinocular Olympus BH-2 microscope fitted with a Microfire 2.1×3 Digital Camera. 100× images were digitized and stored on CD using MS Pictureframe and Microfire Software. All compartment images were measured using a calibrated micrometer. An average of three measurements of each compartment for two slide images per biopsy was obtained and tabulated, and means and standard deviations were calculated.

SKH-1 hairless mice [4] = test: Hairless mouse assay: skin moisture content; assay type: in vivo; details: course over 3 weeks of topical treatment
Excerpt: Evaluation of cutaneous effects of new topical compounds in the hirless mouse assay. The purpose of this study was to evaluate new topical compounds for their safety and efficacy as topical skin anti-aging treatments. The hairless mouse model is a well established model for studying the treatments of photoaging. […] The present study was used to investigate a new class of anti-aging compounds in comparison to classical ones. […] Topical compounds and vehicle controls were be applied daily (Monday-Friday) for 3 weeks to the dorsal skin of hairless mice. At baseline (prior to the 1st treatment), and weekly, the dorsal skin was measured for: transepidermal water loss (TEWL); skin moisture content; and skin elasticity.
as §1
Skin Moisture Content & Elasticity. The measurements of skin moisture content and skin elasticity are important noninvasive methods used to characterize the effects of moisturizers and anti-wrinkle effects on skin. A DermaLab™ combination instrument were used to measure the skin moisture content and elasticity of the target skin sites at baseline and at weekly intervals. This instrument is equipped with dual probes which are placed on the skin surface and a quantitative measurement taken of the respective parameters and the measurements recorded on an integrated computer. Mean measurements was determined for each treatment group over time, and comparative statistics used to evaluate product effectiveness.
as §2

SKH-1 hairless mice [5] = test: Hairless mouse assay: erythema scoring (skin irritation); assay type: in vivo; set-up: key: 0: No response; 1: Very slight redness; 2: Slight redness; 3: Moderate redness/irritation; 4: Severe redness/irritation; 5: Very severe redness/irritation; 6: Necrosis; details: topical, daily, 1 to 3 weeks
Excerpt: Evaluation of cutaneous effects of new topical compounds in the hirless mouse assay. The purpose of this study was to evaluate new topical compounds for their safety and efficacy as topical skin anti-aging treatments. The hairless mouse model is a well established model for studying the treatments of photoaging. This model has been used to study mechanisms, define effective treatment regimens and assess safety for retinoids and other anti-aging products. The present study was used to investigate a new class of anti-aging compounds in comparison to classical ones. Recent clinical studies have shown that this class of compounds improve the appearance of photodamaged skin and decrease transepidermal water loss (TEWL) without causing skin irritation. This study investigated the mechanisms of how these compounds affect the skin aging process and help to identify new compounds which are safe and effective for preventing and improving the clinical features of photoaged skin. Topical compounds and vehicle controls were be applied daily (Monday-Friday) for 3 weeks to the dorsal skin of hairless mice. At baseline (prior to the 1st treatment), and weekly, the dorsal skin was measured for: transepidermal water loss (TEWL); skin moisture content; and skin elasticity.
Experimental Design. […]
Technical staff recorded erythema scores for all animals each morning. […]

[6] = clinical experience / previous clinical studies; cited from earlier work

Compound | JC-1 staining [1] | epidermal BrdU staining (SKH-1 hairless mice [2]) | skin compartment thickness (SKH-1 hairless mice [3]; H&E stained biopsies) | histological evaluation of skin biopsies (SKH-1 hairless mice [3]) | skin moisture content (skin conductance) (SKH-1 hairless mice [4]) | Erythema score (Grade) (SKH-1 hairless mice [5]) | TEWL [6]
CN[C@@H]1C[C@H]2O[C@@](C)([C@@H]1OC)n1c3ccccc3c3c4c(c5c6ccccc6n2c5c31)C(=O)NC4 [staurosporine, reference compound] | drastically reduced the uptake of JC-1 and J-aggregate formation | – | – | – | – | – | –
CC1=C(/C=C/C(C)=C/C=C/C(C)=C/C(=O)O)C(C)(C)CCC1 [tretinoin] | – | no epidermal BrdU staining | increased both epidermal and dermal thickness | marked increased thickness of the epidermis and inflammatory changes in the dermis | significant decrease | 3 | increase in TEWL
